According to the Deep4Chem optical property database:
One block for each molecule: values may come before it.

Assay: solvent given as SMILES

- fluorescence lifetime (in CC1CCCCC1): 0.64 ns
- fluorescence lifetime (in CC#N): 0.3 ns
- fluorescence lifetime (in CO): 0.027 ns
Structure (SMILES): COC(=O)C(NC(=O)OC(C)(C)C)c1ccc2oc(-c3ccc(OC(=O)c4ccccc4)cc3O)nc2c1 (stereo not drawn)

- fluorescence lifetime (in CCO): 6.6 ns
- fluorescence lifetime (in ClC(Cl)Cl): 5.1 ns
Structure (SMILES): CCOc1ccc2c(-c3nc(-c4ccccc4F)no3)cc(=O)oc2c1

- fluorescence lifetime (in CO): 59 ns
Structure (SMILES): O=C(O)CCCOc1cc2ccc3cccc4ccc(c1)c2c34

Structure (SMILES): Cc1ccc(C2=C3C=CC(C#Cc4ccccc4)=[N+]3[B-](F)(F)n3c(C#Cc4ccccc4)ccc32)cc1
- fluorescence lifetime (in C1CCCCC1): 6.58 ns
- fluorescence lifetime (in C1CCOC1): 6.62 ns
- fluorescence lifetime (in C1COCCO1): 6.44 ns
- fluorescence lifetime (in CCOC(C)=O): 6.74 ns
- fluorescence lifetime (in CO): 6.51 ns
- fluorescence lifetime (in Cc1ccccc1): 6.18 ns
- fluorescence lifetime (in ClC(Cl)Cl): 6.66 ns

- fluorescence lifetime (in CCCCCC): 14.1 ns
Structure (SMILES): COC(=O)c1c(C(=O)OC)c2ccc(C)nn2c1C

- fluorescence lifetime (in C1CCCCC1): 6.6 ns
- fluorescence lifetime (in CC#N): 6.3 ns
Structure (SMILES): C=Cc1ccc(OC)cc1

Structure (SMILES): c1ccc(-c2nc(-c3ccccc3)nc(-c3ccc(-n4c5ccccc5c5cc6c(cc54)C(c4ccccc4)(c4ccccc4)c4ccccc4-6)cc3)n2)cc1
- fluorescence lifetime (in O=P(c1ccccc1)(c1ccccc1)c1ccccc1Oc1ccccc1P(=O)(c1ccccc1)c1ccccc1): 10.3 ns

Structure (SMILES): CN(C)c1ccc(C2=Nc3sc4c(F)c(F)c(F)c(F)c4[n+]3[B-](F)(F)O2)cc1
- fluorescence lifetime (in Cc1ccccc1): 2 ns

Structure (SMILES): c1cc2c3c(c1)-c1cccc4cccc(c14)B3c1cccc3cccc-2c13
- fluorescence lifetime (in Cc1ccccc1): 6.31 ns

- fluorescence lifetime (in O): 0.74 ns
Structure (SMILES): Cc1cn(CCCn2cc(C)c(=O)[nH]c2=O)c(=O)nc1-n1cncn1

Structure (SMILES): CC1=CC(C)=[N+]2C1=C(c1ccccc1)c1c(C)cc(C)n1[B-]2(F)F
- fluorescence lifetime (in C1CCOC1): 3.73 ns
- fluorescence lifetime (in CC#N): 3.81 ns
- fluorescence lifetime (in CC(=O)C(C)(C)C): 3.39 ns
- fluorescence lifetime (in CC(C)=O): 3.65 ns
- fluorescence lifetime (in CCCCCC): 3.37 ns
- fluorescence lifetime (in CCOC(C)=O): 3.98 ns
- fluorescence lifetime (in CO): 3.9 ns
- fluorescence lifetime (in Cc1ccccc1): 3.4 ns
- fluorescence lifetime (in ClCCl): 3.97 ns

- fluorescence lifetime (in ClC(Cl)Cl): 2.8 ns
Structure (SMILES): COc1cc(OC)c2cc(-c3ccccc3CC#N)c(=O)oc2c1

- fluorescence lifetime (in ClCCl): 4.71 ns
Structure (SMILES): c1ccc(N(c2ccccc2)c2ccc3c4cccc5c(N(c6ccccc6)c6ccccc6)ccc(c6cccc2c63)c54)cc1

- fluorescence lifetime (in c1ccccc1): 6 ns
Structure (SMILES): O=c1oc2c(ccc3ccccc32)nc1-c1ccccc1

- fluorescence lifetime (in c1ccccc1): 7.2 ns
Structure (SMILES): CN(C)c1ccc2ccc3oc(=O)c(-c4ccccc4)nc3c2c1

- fluorescence lifetime (in ClC(Cl)Cl): 6.2 ns
Structure (SMILES): COc1ccc2c3ccc(OC)cc3c3cc4c(C)cc(=O)oc4cc3c2c1

- fluorescence lifetime (in CCCCCC): 52.9 ns
- fluorescence lifetime (in CO): 85.7 ns
- fluorescence lifetime (in ClCCl): 40.3 ns
Structure (SMILES): CC(C)c1ccc2ccc3c(C(C)C)ccc4ccc1c2c43

- fluorescence lifetime (in CC#N): 0.04 ns
Structure (SMILES): COc1ccc(/C=C/c2ccccc2)cc1

- fluorescence lifetime (in ClCCl): 6.25 ns
Structure (SMILES): Cc1ccc(N(c2ccc(C)cc2)c2ccc3c4cccc5c(N(c6ccc(C)cc6)c6ccc(C)cc6)ccc(c6cccc2c63)c54)cc1

- fluorescence lifetime (in C1CCCCC1): 12 ns
Structure (SMILES): CC(C)(C)[Si](C)(C)c1ccc([Si](C)(C)C(C)(C)C)c2ccccc12

Structure (SMILES): C(=C\c1cccc2ccccc12)/c1ccc(-c2nnc(-c3ccc(-c4cc5ccccc5s4)cc3)o2)cc1
- fluorescence lifetime (in Cc1ccccc1): 0.97 ns
- fluorescence lifetime (in ClC(Cl)Cl): 1.15 ns

Structure (SMILES): Cc1ccc2c(c1)C1(c3ccccc3Oc3ccccc31)c1cc(C)ccc1N2c1ccc(-c2nc(-c3ccccc3)cc(-c3ccccc3)n2)cc1
- fluorescence lifetime (in O=P(c1ccccc1)(c1ccccc1)c1ccc2oc3ccc(P(=O)(c4ccccc4)c4ccccc4)cc3c2c1): 11 ns

Structure (SMILES): CCCCCCCCN(CCCCCCCC)c1ccc(/C=C/c2ccc(C#Cc3ccc(-c4ccc(C#Cc5ccc(/C=C/c6ccc(N(CCCCCCCC)CCCCCCCC)cc6)cc5)cc4)cc3)cc2)cc1
- fluorescence lifetime (in Cc1ccccc1): 0.4 ns

- fluorescence lifetime (in ClCCl): 15.3 ns
Structure (SMILES): CCCCCCCCCCOc1ccc(C#Cc2cc3c(C#Cc4ccc(OCCCCCCCCCC)cc4)c(C#Cc4ccc(OCCCCCCCCCC)cc4)c4cc(C#Cc5ccc(OCCCCCCCCCC)cc5)cc5c(C#Cc6ccc(OCCCCCCCCCC)cc6)c(C#Cc6ccc(OCCCCCCCCCC)cc6)c(c2)c3c45)cc1

- fluorescence lifetime (in C1CCOC1): 1.2 ns
Structure (SMILES): CC(=O)c1ccc(-c2ccc3c(c2)C(=O)c2cc(-c4ccc(C(C)=O)cc4)ccc2-3)cc1

- fluorescence lifetime (in CC#N): 2.3 ns
Structure (SMILES): CC1=CC(/C=C/c2ccc(N(C)C)cc2)=[N+]2C1=C(c1ccc(C#CCO[C@@H]3O[C@H](CO)[C@@H](O)C(O)[C@H]3O)cc1)c1c(C)cc(/C=C/c3ccc(N(C)C)cc3)n1[B-]2(F)F (stereo partly drawn)

Structure (SMILES): COC(=O)/C=C/c1ccc2ccc3cccc4ccc1c2c34
- fluorescence lifetime (in C1CCOC1): 2.8 ns
- fluorescence lifetime (in CC#N): 2.4 ns
- fluorescence lifetime (in CC(C)=O): 2.6 ns

Structure (SMILES): COc1ccc(C2=C(c3ccc(OC)cc3)C(c3ccccc3)=[N+]3C2=Nc2c(-c4ccc(OC)cc4)c(-c4ccc(OC)cc4)c(-c4ccccc4)n2[B-]3(F)F)cc1
- fluorescence lifetime (in Cc1ccccc1): 0.08 ns

- fluorescence lifetime (in CCCCCC): 5 ns
Structure (SMILES): Cc1cc(C)c(B(c2c(C)cc(C)cc2C)c2cc3cccc4c(B(c5c(C)cc(C)cc5C)c5c(C)cc(C)cc5C)cc5cccc2c5c34)c(C)c1

Structure (SMILES): CCN1\C(=C/C=C/C=C/C2=[N+](CC)c3ccc4cc(Br)ccc4c3C2(C)C)C(C)(C)c2c1ccc1cc(Br)ccc21
- fluorescence lifetime (in C1CCOC1): 1.37 ns
- fluorescence lifetime (in CC#N): 1.01 ns
- fluorescence lifetime (in CC(C)=O): 1.12 ns
- fluorescence lifetime (in CCO): 1.03 ns
- fluorescence lifetime (in CN(C)C=O): 1.39 ns
- fluorescence lifetime (in CO): 0.84 ns
- fluorescence lifetime (in CS(C)=O): 1.5 ns
- fluorescence lifetime (in ClCCl): 1.46 ns

- fluorescence lifetime (in O): 1.4 ns
Structure (SMILES): Cc1ccc(N(CC(=O)[O-])CC(=O)[O-])cc1OCCOc1cc(-c2cc3ccc(C(=O)[O-])cc3[nH]2)ccc1N(CC(=O)[O-])CC(=O)[O-]

- fluorescence lifetime (in C1CCCCC1): 0.1 ns
- fluorescence lifetime (in CC#N): 0.16 ns
- fluorescence lifetime (in CO): 0.0052 ns
- fluorescence lifetime (in CS(C)=O): 0.1 ns
- fluorescence lifetime (in c1ccccc1): 0.9 ns
Structure (SMILES): CN(C)c1ccc(C(=O)c2ccccc2)cc1

- fluorescence lifetime (in CC#N): 0.58 ns
Structure (SMILES): COc1ccc(/C=C/c2ccc(-c3ccc(C)cn3)nc2)cc1

- fluorescence lifetime (in CC#N): 2.4 ns
Structure (SMILES): CC(=O)OC[C@H]1O[C@@H](OCC#Cc2ccc(C3=C4C(C)=CC(/C=C/c5ccc(N(C)C)cc5)=[N+]4[B-](F)(F)n4c(/C=C/c5ccc(N(C)C)cc5)cc(C)c43)cc2)[C@H](OC(C)=O)C(OC(C)=O)[C@@H]1OC(C)=O (stereo partly drawn)

Structure (SMILES): c1ccc(-c2ccc3c(c2)c2cc(-c4ccccc4)ccc2n3-c2ccc3c(c2)c2cc(-n4c5ccc(-c6ccccc6)cc5c5cc(-c6ccccc6)ccc54)ccc2n3-c2ccc(-c3nc(-c4ccccc4)nc(-c4ccccc4)n3)cc2)cc1
- fluorescence lifetime (in Cc1ccccc1): 6.3 ns

- fluorescence lifetime (in CC#N): 3.05 ns
Structure (SMILES): COc1ccc(-c2csc(/C(C#N)=C/c3ccc(Cl)cc3Cl)n2)cc1

- fluorescence lifetime (in ClCCl): 6.2 ns
Structure (SMILES): CC(C)(C)c1ccc(N(c2ccccc2)c2ccc3ccc4c(N(c5ccccc5)c5ccc(C(C)(C)C)cc5)ccc5ccc2c3c54)cc1

- fluorescence lifetime (in ClCCl): 4.67 ns
Structure (SMILES): CC(C)c1cccc(C(C)C)c1N1C(=O)c2cccc3c(Oc4ccccc4)ccc(c23)C1=O

- fluorescence lifetime (in CC#N): 2.9 ns
- fluorescence lifetime (in CCCCCC): 3.24 ns
- fluorescence lifetime (in CO): 3.2 ns
- fluorescence lifetime (in ClC(Cl)Cl): 2.41 ns
Structure (SMILES): c1cc2ccc3cccc4c(-c5cc(-c6nccs6)nc(-c6nccs6)c5)cc(c1)c2c34

- fluorescence lifetime (in ClC(Cl)Cl): 1.58 ns
Structure (SMILES): Cc1cccc(C2=Cc3ccc4ccccc4[n+]3[B-](F)(F)O2)c1

- fluorescence lifetime (in C1CCCCC1): 5.37 ns
- fluorescence lifetime (in C1CCOC1): 12.4 ns
- fluorescence lifetime (in CC#N): 16.7 ns
Structure (SMILES): COc1ccc2nc3c(nc2c1)c(-c1ccccc1)nn3C

- fluorescence lifetime (in O): 1.13 ns
Structure (SMILES): COc1cc(N2CCOCCOCCN(c3cc(OC)c(NC(=O)c4ccc(-c5c6cc(Cl)c(=O)cc-6oc6cc([O-])c(Cl)cc56)c(C(=O)[O-])c4)cc3OC)CCOCC2)c(OC)cc1NC(=O)c1ccc(-c2c3cc(Cl)c(=O)cc-3oc3cc([O-])c(Cl)cc23)c(C(=O)[O-])c1

- fluorescence lifetime (in CC#N): 116 ns
Structure (SMILES): COC(=O)C12N=N[C@](C(=O)OC)(C3C4CCC(C4)C31)[C@@]1(C)C[C@@H]21 (stereo partly drawn)

- fluorescence lifetime (in CCCCCC): 17.4 ns
Structure (SMILES): CCOC(=O)c1cc(C)n2nc(-c3ccccc3)ccc12
